Experimental data: patent publication US20080153891A1, “SYNERGISTIC ANTI-CANCER COMPOSITIONS” (The Arizona Board of Regents, priority 2003, published 2008)

Tests used:
8226/s cells = test: Combination cytotoxicity with imexon, MTT assay, combination index (median-effect); type: cell-based, human; conditions: in combination with imexon at fixed constant ratio, 5 days after drugging, classified by combination index
A375 cells = test: Combination cytotoxicity with imexon, SRB assay, combination index (median-effect); type: cell-based, human; conditions: in combination with imexon at fixed constant ratio, 5 days after drugging, classified by combination index
[1] = Toxicology study in non-tumor bearing (normal) mice
Experimental: A toxicology study was performed in non-tumor bearing (i.e., normal) mice given imexon (100 mg/kg/day×9 days) with either gemcitabine (180 mg/kg days 1, 5 and 9) or cytarabine (800 mg/kg days 1, 4 and 7). The tests were conducted to evaluate whether there was increased bone marrow toxicity or decreased renal and hepatic function for imexon combined with either agent.

Structure (SMILES)	Effect of second antineoplastic agent in combination with imexon, 8226/S CELL LINE (8226/s cells)	Effect of second antineoplastic agent in combination with imexon, A375 CELL LINE (A375 cells)	Mean Platelet Counts (SD), Day 10 ([1]; Day 10, imexon 100 mg/kg days 1-9, cytarabine 800 mg/kg days 1, 4, 7, gemcitabine 180 mg/kg days 1, 5, 9)	Mean Platelet Counts (SD), Day 12 ([1]; Day 12, imexon 100 mg/kg days 1-9, cytarabine 800 mg/kg days 1, 4, 7, gemcitabine 180 mg/kg days 1, 5, 9)	number of red blood cells ([1]; imexon 100 mg/kg/day x 9 days)
O=c1[nH]cc(F)c(=O)[nH]1 [5-fluorouracil]	Synergistic (Where the combination index is less than 1, synergism is indicated)	Synergistic (Where the combination index is less than 1, synergism is indicated)	–	–	–
N=C1NC(=O)N2CC12 (stereo not shown) [Imexon, 4-imino-1,3-diazabicyclo[3.1.0]-hexan-2-one]	–	–	880 (180) × 1000/μL	920 (138) × 1000/μL	increased slightly
N.N.[Cl][Pt][Cl] [cisplatin]	Synergistic (Where the combination index is less than 1, synergism is indicated)	Synergistic (Where the combination index is less than 1, synergism is indicated)	–	–	–
Nc1ccn([C@@H]2O[C@H](CO)[C@@H](O)[C@@H]2O)c(=O)n1 [cytarabine]	Synergistic (Where the combination index is less than 1, synergism is indicated)	Synergistic (Where the combination index is less than 1, synergism is indicated)	–	–	–
CN(C)/N=N/c1[nH]cnc1C(N)=O [dacarbazine (DTIC), dacarbazine]	Synergistic (Where the combination index is less than 1, synergism is indicated)	Synergistic (Where the combination index is less than 1, synergism is indicated)	–	–	–
C[C@@H]1C[C@H]2[C@@H]3CCC4=CC(=O)C=C[C@]4(C)[C@@]3(F)[C@@H](O)C[C@]2(C)[C@@]1(O)C(=O)CO [dexamethasone]	Antagonistic (Where the combination index is greater than 1, antagonism is indicated)	Additive (Where the combination index is equal to 1, summation (also commonly referred to as additivity) is indicated)	–	–	–
COc1cccc2c1C(=O)c1c(O)c3c(c(O)c1C2=O)C[C@@](O)(C(=O)CO)C[C@@H]3O[C@H]1C[C@H](N)[C@H](O)[C@H](C)O1 [doxorubicin]	Antagonistic (Where the combination index is greater than 1, antagonism is indicated)	Antagonistic (Where the combination index is greater than 1, antagonism is indicated)	–	–	–
Nc1ccn([C@@H]2O[C@H](CO)[C@@H](O)C2(F)F)c(=O)n1 [gemcitabine]	Synergistic (Where the combination index is less than 1, synergism is indicated)	Synergistic (Where the combination index is less than 1, synergism is indicated)	–	–	–
CN(Cc1cnc2nc(N)nc(N)c2n1)c1ccc(C(=O)N[C@@H](CCC(=O)O)C(=O)O)cc1 [methotrexate]	Antagonistic (Where the combination index is greater than 1, antagonism is indicated)	Antagonistic (Where the combination index is greater than 1, antagonism is indicated)	–	–	–
CC(=O)O[C@H]1C(=O)[C@@]2(C)[C@H]([C@H](OC(=O)c3ccccc3)[C@]3(O)C[C@H](OC(=O)[C@H](O)[C@@H](NC(=O)c4ccccc4)c4ccccc4)C(C)=C1C3(C)C)[C@]1(OC(C)=O)CO[C@@H]1C[C@@H]2O [paclitaxel]	Antagonistic (Where the combination index is greater than 1, antagonism is indicated)	Additive (Where the combination index is equal to 1, summation (also commonly referred to as additivity) is indicated)	–	–	–
CC(=O)O[C@@]12CO[C@@H]1C[C@H](O)[C@@]1(C)C(=O)[C@H](O)C3=C(C)[C@@H](OC(=O)[C@H](O)[C@@H](NC(=O)OC(C)(C)C)c4ccccc4)C[C@@](O)([C@@H](OC(=O)c4ccccc4)[C@H]21)C3(C)C [taxotere, docetaxel]	Synergistic (Where the combination index is less than 1, synergism is indicated)	Synergistic (Where the combination index is less than 1, synergism is indicated)	–	–	–
CCC1=C[C@@H]2CN(C1)Cc1c([nH]c3ccccc13)[C@@](C(=O)OC)(c1cc3c(cc1OC)N(C)[C@H]1[C@@](O)(C(=O)OC)[C@H](OC(C)=O)[C@]4(CC)C=CCN5CC[C@]31[C@@H]54)C2 [vinorelbine]	Additive (Where the combination index is equal to 1, summation (also commonly referred to as additivity) is indicated)	Additive (Where the combination index is equal to 1, summation (also commonly referred to as additivity) is indicated)	–	–	–
